Assay results from ChEMBL document CHEMBL1201862, “PubChem BioAssay data set” (2004).
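Exposure lasted 48 hours, with cells grown in 96-well plates and compounds tested at five concentrations. The concentration for 50% growth inhibition is given as GI50.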 The source made the active and inactive calls. No stated cut-off is given here; in the data, active = GI50 up to about 1.1 µM and inactive = higher.

Experiments:
Test in all cases: NCI tumour cell line growth inhibition, 48 h
U-251 = tested on: U-251
SF-295 = tested on: SF-295
BT-549 = tested on: BT-549
SK-MEL-5 = tested on: SK-MEL-5
MDA-MB-435 = tested on: MDA-MB-435
M14 = tested on: M14
KM12 = tested on: KM12
SF-539 = tested on: SF-539
SNB-75 = tested on: SNB-75
HOP-92 = tested on: HOP-92
OVCAR-5 = tested on: OVCAR-5
786-0 = tested on: 786-0
SR = tested on: SR
ACHN = tested on: ACHN
Malme-3M = tested on: Malme-3M
HCT-116 = tested on: HCT-116
T47D = tested on: T47D
SF-268 = tested on: SF-268
HCT-15 = tested on: HCT-15
HL-60 = tested on: HL-60

| SMILES | GI50 (U-251) | GI50 (SF-295) | GI50 (BT-549) | GI50 (SK-MEL-5) | GI50 (MDA-MB-435) | GI50 (M14) | GI50 (KM12) | GI50 (SF-539) | GI50 (SNB-75) | GI50 (HOP-92) | GI50 (OVCAR-5) | GI50 (786-0) | GI50 (SR) | GI50 (ACHN) | GI50 (Malme-3M) | GI50 (HCT-116) | GI50 (T47D) | GI50 (SF-268) | GI50 (HCT-15) [µM] | GI50 (HL-60) |
| --- | --- | --- | --- | --- | --- | --- | --- | --- | --- | --- | --- | --- | --- | --- | --- | --- | --- | --- | --- | --- |
| C[C@H](NC1=C(Cl)C(=O)c2c(O)ccc(O)c2C1=O)C(=O)Nc1ccc([N+](=O)[O-])cc1 | 2.58 µM (inactive) | 1.89 µM (inactive) | 4.02 µM (inactive) | 1.76 µM (inactive) | 1.57 µM (inactive) | 1.25 µM (inactive) | 1.82 µM (inactive) | 2.21 µM (inactive) | 4.04 µM (inactive) | 2.08 µM (inactive) | 1.77 µM (inactive) | 1.6 µM (inactive) | 2.47 µM (inactive) | 2.94 µM (inactive) | 1.19 µM (inactive) | 1.41 µM (inactive) | 3.25 µM (inactive) | 2.16 µM (inactive) | 1.93 |  |
| COC(=O)[C@]12CSC[C@H]1C[C@H](c1cccc3ccccc13)N2 | 69.8 µM (inactive) | > 100 µM (inactive) | > 100 µM (inactive) | > 100 µM (inactive) | > 100 µM (inactive) | > 100 µM (inactive) | > 100 µM (inactive) | > 100 µM (inactive) | > 100 µM (inactive) | > 100 µM (inactive) | > 100 µM (inactive) | > 100 µM (inactive) | 37.8 µM (inactive) | 39.4 µM (inactive) |  | 51.6 µM (inactive) | > 100 µM (inactive) |  | > 100 |  |
| Cc1ccc(OCCn2cc(Nc3ccccc3)c(=O)[nH]c2=O)cc1 | > 100 µM (inactive) | > 100 µM (inactive) | > 100 µM (inactive) | > 100 µM (inactive) | > 100 µM (inactive) | > 100 µM (inactive) | > 100 µM (inactive) | > 100 µM (inactive) | 34.3 µM (inactive) | > 100 µM (inactive) | > 100 µM (inactive) | > 100 µM (inactive) | > 100 µM (inactive) | > 100 µM (inactive) | > 100 µM (inactive) | > 100 µM (inactive) | > 100 µM (inactive) | > 100 µM (inactive) | > 100 |  |
| Cc1cc2c(nn1)-c1ccccc1C2=O | > 10 µM (inactive) | > 10 µM (inactive) | > 10 µM (inactive) | > 10 µM (inactive) | > 10 µM (inactive) | > 10 µM (inactive) | > 10 µM (inactive) | > 10 µM (inactive) |  | > 10 µM (inactive) | > 10 µM (inactive) | > 10 µM (inactive) | > 10 µM (inactive) | > 10 µM (inactive) | > 10 µM (inactive) | > 10 µM (inactive) | > 10 µM (inactive) | > 10 µM (inactive) | > 10 | > 10 µM (inactive) |
| SC1=NC2(CCCCCC2)NN1c1ccccc1 |  | 0.0471 µM (active) | > 100 µM (inactive) | 93.3 µM (inactive) | 3.61 µM (inactive) | 1.61 µM (inactive) | 0.291 µM (active) |  | > 66.8 µM (inactive) | > 100 µM (inactive) | 1.91 µM (inactive) | > 30.6 µM (inactive) | 28.8 µM (inactive) | 0.0785 µM (active) | 16.4 µM (inactive) |  | 0.597 µM (active) | 0.184 µM (active) | 0.168 | 0.0867 µM (active) |
| Cc1cc(O)c2c(c1)C(C1OC(CO)C(O)C(O)C1O)c1cc(O)cc(O)c1C2=O (stereo not drawn) | > 100 µM (inactive) | > 100 µM (inactive) | > 100 µM (inactive) | > 100 µM (inactive) | > 100 µM (inactive) | > 100 µM (inactive) |  |  | > 100 µM (inactive) | > 100 µM (inactive) | > 100 µM (inactive) | > 100 µM (inactive) | > 100 µM (inactive) | > 100 µM (inactive) | > 100 µM (inactive) | > 100 µM (inactive) | > 100 µM (inactive) | > 100 µM (inactive) | > 100 | > 100 µM (inactive) |
| COc1ccc(/C=C/C(=O)N[C@@H]2C(=O)N3[C@@H]2SC(C)(C)[C@@H]3C(=O)O)cc1OC | > 100 µM (inactive) | > 100 µM (inactive) | > 100 µM (inactive) | > 100 µM (inactive) | > 100 µM (inactive) | > 100 µM (inactive) | > 100 µM (inactive) | > 100 µM (inactive) | > 100 µM (inactive) | > 100 µM (inactive) | > 100 µM (inactive) | > 100 µM (inactive) | > 100 µM (inactive) | > 100 µM (inactive) |  | > 100 µM (inactive) | > 100 µM (inactive) | > 100 µM (inactive) | > 100 | > 100 µM (inactive) |
| Cc1oc2nc(N(C)C)n3nnnc3c2c1C | > 100 µM (inactive) | > 100 µM (inactive) | 74.1 µM (inactive) | > 100 µM (inactive) | > 100 µM (inactive) | > 100 µM (inactive) | > 100 µM (inactive) | > 100 µM (inactive) | 67.5 µM (inactive) | > 100 µM (inactive) | > 100 µM (inactive) | 70.1 µM (inactive) | > 10 µM (inactive) | 61.9 µM (inactive) |  | > 100 µM (inactive) | > 100 µM (inactive) | > 100 µM (inactive) | > 100 | 18.6 µM (inactive) |
| Cc1ccc(O)c(C(=O)/C=C/c2ccccc2)c1 | > 100 µM (inactive) | > 100 µM (inactive) | > 100 µM (inactive) | > 100 µM (inactive) | > 100 µM (inactive) | > 100 µM (inactive) | 1.37 µM (inactive) | > 100 µM (inactive) | 49 µM (inactive) | > 100 µM (inactive) | > 100 µM (inactive) | > 100 µM (inactive) | > 100 µM (inactive) | > 100 µM (inactive) |  | > 100 µM (inactive) | > 100 µM (inactive) | > 100 µM (inactive) | > 100 | 23.1 µM (inactive) |
| CCC1=NC(N/N=C/c2ccco2)=N/C1=C\c1ccccc1O | 56.4 µM (inactive) | 44.2 µM (inactive) | 29.4 µM (inactive) | 27.2 µM (inactive) | 29.5 µM (inactive) | 35.2 µM (inactive) | 31.5 µM (inactive) |  |  | 70 µM (inactive) | 78.7 µM (inactive) | 39.7 µM (inactive) | 48.4 µM (inactive) | 21.9 µM (inactive) | 31 µM (inactive) | 23.7 µM (inactive) | 48.9 µM (inactive) | 21.8 µM (inactive) | 12.6 | 27.4 µM (inactive) |
| c1ccc([B-]2(c3ccccc3)NCCCO2)cc1 | > 100 µM (inactive) | 51.3 µM (inactive) | 31.4 µM (inactive) | 24.8 µM (inactive) | 46.3 µM (inactive) | 31.3 µM (inactive) | 91.2 µM (inactive) | 33.3 µM (inactive) |  | 20.3 µM (inactive) | > 100 µM (inactive) | 56.9 µM (inactive) | 44.9 µM (inactive) | 35.4 µM (inactive) | 48.9 µM (inactive) | 35.8 µM (inactive) | 34.9 µM (inactive) | > 100 µM (inactive) | 31.8 | > 100 µM (inactive) |
